These are literature values, as cited in US20120034273A1, “EXTRUDATE HAVING SPICULAR ACTIVE SUBSTANCES” (Bayer Animal Health GmbH, priority 2008, published 2012).

For the data set the following is noted: stated in words, no test described.

Consider `O=C(C1CCCCC1)N1CC(=O)N2CCc3ccccc3C2C1` (stereo not shown) [praziquantel], for which the solubility in water entry is recorded as “poorly soluble in water”.
